Earlier results as cited in paper PMC9186412, “Rational Framework for the Design of Trp- and Arg-Rich Peptide Antibiotics Against Multidrug-Resistant Bacteria” (Frontiers in Microbiology, 2022).

Tested on: human red blood cells (RBCs)
Conditions: at 16 μM; ref de Breij et al., 2018; cited from earlier work

## Ac-LKRVWKRVFKLLKRYWRQLKKPVR-NH2 [SAAP-148]
  RBC lysis: moderate RBC lysis
